Molecules are shown by their SMILES.

The test system of this assay is HIV-1. As to the kind of experiment: HIV infectivity assay (Table 2, strain not given). The assay is classed as cell-based. The following applies: Human immunodeficiency virus 1, read-out: Activity Level. The procedure: Compounds were profiled against two HIV-1 viruses, the M-tropic (CCR5 utilizing) Ba-L strain and the T-tropic (CXCR4 utilizing) IIIB strain. Both viruses were propagated in human peripheral blood lymphocytes. Compounds were tested for there ability to block infection of the HOS cell line (expressing hCXCR4/hCCR5/hCD4/pHIV-LTR-luciferase) by either HIV-1 Ba-L or HIV-1, IIIB. Compound cytotoxicity was also examined in the absence of virus addition.
HOS cells (expressing hCXCR4/hCCR5/hCD4/pHIV-LTR-luciferase) were harvested and diluted in Dulbeccos modified Eagles media supplemented with 2% FCS and non-essential amino acid to a concentration of 60,000 cells/ml. The cells were plated into 96-well plates (100 ul per well) and the plates were placed in a tissue culture incubator (37° C.; 5% CO2/95% air) for a period of 24 h.
Subsequently, 50 ul of the desired drug solution (4 times the final concentration) was added to each well and the plates were returned to the tissue culture incubator (37° C.; 5% CO2/95% air) for 1 h. Following this incubation 50 ul of diluted virus was added to each well (approximately 2 million RLU per well of virus). The plates were returned to the tissue culture incubator (37° C.; 5% CO2/95% air) and were incubated for a further 96 h.
Following this incubation the endpoint for the virally infected cultures was quantified following addition of Steady-Glo Luciferase assay system reagent (Promega, Madison, Wis.). Cell viability or non-infected cultures was measured using a CellTiter-Glo luminescent cell viability assay system (Promega, Madison, Wis.). All luminescent readouts are performed on a Topcount luminescence detector (Packard, Meridien, Conn.).
Compounds were profiled against two HIV-1 viruses, the M-tropic (CCR5 utilizing) Ba-L strain and the T-tropic (CXCR4 utilizing) IIIB strain. Ba-L was propagated in either peripheral blood lymphocytes or SupT1/CCR5+/CXCR4+ cells. IIIB was propagated in peripheral blood lymphocytes. Compounds were tested for their ability to block infection of the HOS cell line (expressing hCXCR4/hCCR5/hCD4/pHIV-LTR-luciferase) by either HIV-1 Ba-L or HIV-1, IIIB. Compound cytotoxicity was also examined in the absence of virus addition.
HOS cells (expressing hCXCR4/hCCR5/hCD4/pHIV-LTR-luciferase) were harvested and diluted in Dulbeccos modified Eagles media supplemented with 2% FCS to a concentration of 120,000 cells/ml. The cells were plated into 96-well plates (50 μl per well) and the plates were placed in a tissue culture incubator (370° C.; 5% CO2/95% air) for a period of 24 h.
Subsequently, 50 μl of the desired drug solution (2 times the final concentration) was added to each well and the plates were returned to the tissue culture incubator (370° C.; 5% CO2/95% air) for 1 h. Following this incubation, 60 μl of diluted virus (4 times the final concentration) was added to 60 μl of 2× the final desired concentration of the compound and 100 μl of this compound/virus mix was added to each well (approximately 2 million RLU per well of virus). The plates were returned to the tissue culture incubator (370° C.; 5% CO2/95% air) and were incubated for a further 96 h.
`CN1CCCN(c2cccc3nc(CN4CCC[C@@H]5CCCc6cccnc6[C@H]54)cn23)CC1` (relative stereo) [Example 125, (trans) 1-{[5-(4-methylhexahydro-1H-1,4-diazepin-1-yl)imidazo[1,2-a]pyridin-2-yl]methyl}-2,3,4,4a,5,6,7,11b-octahydro-1H-pyrido[3′,2′:6,7]cyclohepta[1,2-b]pyridine]: the IC50 is 100 to 500 nM.

Consider `CN1CCC(Nc2cccc3nc(CN4CCC[C@H]5CCc6cccnc6[C@H]54)cn23)CC1` [Example 68, 2-[(4aR,10bS)-3,4,4a,5,6,10b-hexahydro-1,10-phenanthrolin-1(2H)-ylmethyl]-N-(1-methyl-4-piperidinyl)imidazo[1,2-a]pyridin-5-amine], for which the IC50 is less than 100 nM.

As to `CCN1CCN(c2cccc3nc(CN4CCC[C@H]5CCc6cccnc6[C@H]54)cn23)CC1` [Example 73, (4aR,10bS)-1-{[5-(4-ethyl-1-piperazinyl)imidazo[1,2-a]pyridin-2-yl]methyl}-1,2,3,4,4a,5,6,10b-octahydro-1,10-phenanthroline], the IC50 is less than 100 nM.

On to `O=C(CN1CCN(c2cccc3nc(CN4CCC[C@H]5CCc6cccnc6[C@H]54)cn23)CC1)N1CCCC1` [Example 101, (4aR,10bS)-1-[(5-{4-[2-oxo-2-(1-pyrrolidinyl)ethyl]-1-piperazinyl}imidazo[1,2-a]pyridin-2-yl)methyl]-1,2,3,4,4a,5,6,10b-octahydro-1,10-phenanthroline], for which the IC50 was less than 100 nM.

`CN(C)CCNc1cccc2nc(CN3CCC[C@H]4CCc5cccnc5[C@H]43)cn12` [Example 90, N′-{2-[(4aR,10bS)-3,4,4a,5,6,10b-hexahydro-1,10-phenanthrolin-1(2H)-ylmethyl]imidazo[1,2-a]pyridin-5-yl}-N,N-dimethyl-1,2-ethanediamine]: the IC50 was in the range of 100 to 500 nM.

For the compound `c1cnc2c(c1)CC[C@@H]1CCCN(Cc3cn4c(N5CCC(N6CCCC6)CC5)cccc4n3)[C@H]21` [Example 72, (4aR,10bS)-1-({5-[4-(1-pyrrolidinyl)-1-piperidinyl]imidazo[1,2-a]pyridin-2-yl}methyl)-1,2,3,4,4a,5,6,10b-octahydro-1,10-phenanthroline], the IC50 was less than 100 nM.

For `NC1CN(c2cccc3nc(CN4CCC[C@H]5CCc6cccnc6[C@H]54)cn23)C1` [Example 97, 1-{2-[(4aR,10bS)-3,4,4a,5,6,10b-hexahydro-1,10-phenanthrolin-1(2H)-ylmethyl]imidazo[1,2-a]pyridin-5-yl}-3-azetidinamine], the IC50 is less than 100 nM.

`CNCCCN(C)c1cccc2nc(CN3CCC[C@H]4CCc5cccnc5[C@H]43)cn12` [Example 81, N-{2-[(4aR,10bS)-3,4,4a,5,6,10b-hexahydro-1,10-phenanthrolin-1(2H)-ylmethyl]imidazo[1,2-a]pyridin-5-yl}-N,N′-dimethyl-1,3-propanediamine]: the IC50 was less than 100 nM.

`NCCCCn1c(CN2CC[C@@H]3CCc4cccnc4[C@H]32)nc2ccccc21` (racemic) [Example 130, (trans) 4-[2-(2,3,3a,4,5,9b-hexahydro-1H-pyrrolo[3,2-h]quinolin-1-ylmethyl)-1H-benzimidazol-1-yl]-1-butanamine]: the IC50 is 100 to 500 nM.

As for `c1cnc2c(c1)CC[C@H]1CCN(Cc3nc4ccccc4n3Cc3nc4ccccc4[nH]3)[C@H]21` (racemic) [Example 131, (trans) 1-{[1-(1H-benzimidazol-2-ylmethyl)-1H-benzimidazol-2-yl]methyl}-2,3,3a,4,5,9b-hexahydro-1H-pyrrolo[3,2-h]quinoline], the IC50 was 500 to 10000 nM.

`CN(C)C1CCN(c2cccc3nc(CN4CCC[C@H]5CCc6cccnc6[C@H]54)cn23)CC1` [Example 67, 1-{2-[(4aR,10bS)-3,4,4a,5,6,10b-hexahydro-1,10-phenanthrolin-1(2H)-ylmethyl]imidazo[1,2-a]pyridin-5-yl}-N,N-dimethyl-4-piperidinamine]: the IC50 is less than 100 nM.

Regarding `CN(C)CCCn1cncc1CN1CCC[C@H]2CCc3cccnc3[C@H]21` [Example 51b, (3-{5-[(4aR,10bS)-3,4,4a,5,6,10b-hexahydro-1,10-phenanthrolin-1(2H)-ylmethyl]-1H-imidazol-1-yl}propyl)dimethylamine], the IC50 is 500 to 10000 nM.

With `c1cnc2c(c1)CC[C@@H]1CCCN(Cc3cn4c(N[C@H]5CCCNC5)cccc4n3)[C@H]21` [Example 112, 2-[(4aR,10bS)-3,4,4a,5,6,10b-hexahydro-1,10-phenanthrolin-1(2H)-ylmethyl]-N-[(3S)-3-piperidinyl]imidazo[1,2-a]pyridin-5-amine], the IC50 is less than 100 nM.

Consider `NCCCCCn1c(CN2CCC[C@H]3CCc4cccnc4[C@H]32)nc2ccccc21` (racemic) [Example 39, (cis) 5-[2-(3,4,4a,5,6,10b-hexahydro-1,10-phenanthrolin-1(2H)-ylmethyl)-1H-benzimidazol-1-yl]-1-pentanamine], for which the IC50 is 100 to 500 nM.

`CN(C)CCCn1c(CN2CCC[C@@H]3CCc4cccnc4[C@H]32)nc2ccccc21` (relative stereo) [Example 40, (trans) 3-[2-(3,4,4a,5,6,10b-hexahydro-1,10-phenanthrolin-1(2H)-ylmethyl)-1H-benzimidazol-1-yl]-N,N-dimethyl-1-propanamine]: the IC50 was in the range of 100 to 500 nM.

Take `CN1CCN(c2cccc3nc(CN4CCC[C@H]5CCc6cccnc6[C@H]54)c(CN4CCOCC4)n23)CC1` [Example 59, (4aR,10bS)-1-{[5-(4-methyl-1-piperazinyl)-3-(4-morpholinylmethyl)imidazo[1,2-a]pyridin-2-yl]methyl}-1,2,3,4,4a,5,6,10b-octahydro-1,10-phenanthroline]: the IC50 was less than 100 nM.

In the case of `OCCN1CCN(c2cccc3nc(CN4CCC[C@H]5CCc6cccnc6[C@H]54)cn23)CC1` [Example 103, 2-(4-{2-[(4aR,10bS)-3,4,4a,5,6,10b-hexahydro-1,10-phenanthrolin-1(2H)-ylmethyl]imidazo[1,2-a]pyridin-5-yl}-1-piperazinyl)ethanol], the IC50 was less than 100 nM.

For the compound `CN1CCN(c2cccc3nc(CN4CCC[C@H]5CCc6cccnc6[C@H]54)[nH]c23)CC1` [Example 48, (4aR,10bS)-1-{[4-(4-methyl-1-piperazinyl)-1H-benzimidazol-2-yl]methyl}-1,2,3,4,4a,5,6,10b-octahydro-1,10-phenanthroline], the IC50 is less than 100 nM.

Take `CN1CCCC1CCNc1cccc2nc(CN3CCC[C@H]4CCc5cccnc5[C@H]43)cn12` (stereo partly drawn) [Example 104, 2-[(4aR,10bS)-3,4,4a,5,6,10b-hexahydro-1,10-phenanthrolin-1(2H)-ylmethyl]-N-[2-(1-methyl-2-pyrrolidinyl)ethyl]imidazo[1,2-a]pyridin-5-amine]: the IC50 was less than 100 nM.

Take `N[C@@H]1CCN(c2cccc3nc(CN4CCC[C@H]5CCc6cccnc6[C@H]54)cn23)C1` [Example 110, (3R)-1-{2-[(4aR,10bS)-3,4,4a,5,6,10b-hexahydro-1,10-phenanthrolin-1(2H)-ylmethyl]imidazo[1,2-a]pyridin-5-yl}-3-pyrrolidinamine]: the IC50 was less than 100 nM.

On to `c1cnc2c(c1)CC[C@@H]1CCCN(Cc3c[nH]cn3)[C@H]21` [Example 50, (4aR,10bS)-1-(1H-imidazol-4-ylmethyl)-1,2,3,4,4a,5,6,10b-octahydro-1,10-phenanthroline], for which the IC50 lay in the range of 500 to 10000 nM.

As for `CN(C)C(=O)CN1CCN(c2cccc3nc(CN4CCC[C@H]5CCc6cccnc6[C@H]54)cn23)CC1` [Example 102, 2-(4-{2-[(4aR,10bS)-3,4,4a,5,6,10b-hexahydro-1,10-phenanthrolin-1(2H)-ylmethyl]imidazo[1,2-a]pyridin-5-yl}-1-piperazinyl)-N,N-dimethylacetamide], the IC50 is less than 100 nM.

Regarding `CN(C)[C@H]1CCN(c2cccc3nc(CN4CCC[C@H]5CCc6cccnc6[C@H]54)cn23)C1` [Example 100, (3S)-1-{2-[(4aR,10bS)-3,4,4a,5,6,10b-hexahydro-1,10-phenanthrolin-1(2H)-ylmethyl]imidazo[1,2-a]pyridin-5-yl}-N,N-dimethyl-3-pyrrolidinamine], the IC50 is less than 100 nM.

These data come from US20090093454A1, “Chemical Compounds” (priority 2005, published 2009).
